Assays:
[1] = tested on: Mouse 3T3-L1 preadipocytes; assay: 3T3-L1 adipocyte differentiation assay; type: cell-based; details: 0.1 μM compared to Compound 1 at equal concentration; pre-adipocytes to adipocytes
Method: Mouse 3T3-L1 cells were grown in 96-well tissue culture plates containing growing medium (DME containing 10% calf serum (CS) plus glutamine-pen-strep) at a density of 3,000 cells/well. Two days after reaching confluence, cells are treated with the different compounds in DM (Day 0). Compound 1 is included in all the experiments, and its ability to differentiate 3T3-L1 cells at 0.1 μM is taken as reference for 100% differentiation. After 7 days the lipid content of the cells was determined.
Prior to testing compounds in vivo, they can be run through the in vitro adipocyte differentiation assay based on the protocol of Zhang, et al. (1996) Negative Regulation of Peroxisome Proliferator—Activated Receptor—γGene Expression Contributes to the Antiadipogenic effects of Tumor Necrosis Factor—α. Mol. Endo. 10:1457-1456, incorporated herein by reference. In short, mouse 3T3-L1 preadipocytes are grown in culture medium containing 10% calf serum supplemented with antibiotics. Two days after reaching confluence, cells are treated with the selected compound at different concentrations dissolved in medium containing 10% fetal calf serum supplemented with antibiotics and kept at 10% CO2. The test compounds are replaced every 2-3 days. Differentiation is assessed after 7 days of treatment by the lipid content in the cells, using the Triglyceride (INFINITY) reagent (Sigma Chemical, St. Louis, Mo.).
The ability of a compound to induce preadipocytes to differentiate into adipocytes is an indicator of its antidiabetic activity. This allows for screening many compounds in a simple in vitro assay, thus avoiding the task of testing all compounds in vivo. The adipocyte differentiation assay is based on the protocol of Zhang, et al. (1996) Negative Regulation of Peroxisome Proliferator-Activated Receptor-γ Gene Expression Contributes to the Antiadipogenic effects of Tumor Necrosis Factor—α. Mol. Endo. 10:1457-1456, incorporated herein by reference at least for material related to adipocyte differentiation assays. Mouse 3T3-L1 preadipocytes are grown in culture medium containing 10% calf serum supplemented with antibiotics. Two days after reaching confluence, cells are treated with the selected compound at different concentrations dissolved in medium containing 10% fetal calf serum supplemented with antibiotics and kept at 10% CO2. The test compounds are replaced every 2-3 days. Differentiation is assessed after 7 days of treatment by the lipid content in the cells, using the Triglyceride (INFINITY) reagent (Sigma Chemical, St. Louis, Mo.) (see FIG. 15).

RXR receptor = target: T1, RXR receptor (Homo sapiens, UniProt P19793); assay: RXR activation (transient transfection reporter assay); type: cell-based; details: 1 μM compared to 9-cis-RA at equal concentration
T1 construct: expressed in transfected cells
T1 sequence (P19793 1-462): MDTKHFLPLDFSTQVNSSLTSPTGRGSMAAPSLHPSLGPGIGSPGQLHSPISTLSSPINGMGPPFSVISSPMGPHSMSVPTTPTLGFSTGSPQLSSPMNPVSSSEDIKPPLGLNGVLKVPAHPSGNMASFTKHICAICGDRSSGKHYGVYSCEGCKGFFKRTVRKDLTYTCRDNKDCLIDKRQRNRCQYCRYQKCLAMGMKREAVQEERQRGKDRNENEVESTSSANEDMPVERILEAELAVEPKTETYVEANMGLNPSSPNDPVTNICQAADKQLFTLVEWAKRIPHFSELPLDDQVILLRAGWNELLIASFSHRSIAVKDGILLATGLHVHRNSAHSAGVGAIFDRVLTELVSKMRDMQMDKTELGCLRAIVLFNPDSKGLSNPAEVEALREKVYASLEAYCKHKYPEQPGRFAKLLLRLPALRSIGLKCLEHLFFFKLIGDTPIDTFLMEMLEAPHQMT
Source text: RXR agonists activate the RXR receptor when interacting with RXR by binding to its binding pocket. This activation can be independent of whether the agonist, while interacting with portions of the ligand binding pocket, also interacts with side pocket 1. Activation, also often referred to as transcriptional activation, of RXR by agonists can be measured by a number of commonly used assays where the effect of the agonist ligand interacting with the RXR ligand binding pocket is to stimulate or induce transcription of a gene or genes in a cell. In one particular embodiment, transient transfection experiments (as described essentially by Zhang, et al. (1996) Negative Regulation of Peroxisome Proliferator—Activated Receptor—γ Gene Expression Contributes to the Antiadipogenic effects of Tumor Necrosis Factor—α. Mol. Endo. 10:1457-1456) can be used. In these cases, full length RXR proteins are expressed in living cells. Alternatively, hybrid proteins that contain a portion of another DNA binding domain and the ligand binding portion of the human RXRα receptor can be expressed in living cells instead of the full length RXR protein. Such hybrid proteins can bind to and activate specific reporter genes introduced into the same living cell and activation of such reporter genes is measured. The assays described here are very commonly used today by people skilled in the art of molecular biology experimenting. Transient transection assays are often used instead of ligand binding assays and can serve to measure or estimate an affinity of an RXR agonist ligand for RXR protein. The effective dose fifty (ED50, also called EC50) is the concentration of the ligand necessary to lead to one half maximal activation of the reporter gene in a living cell. Compounds that show 60% of the activity of the agonist 9-cis retenoic acid at 10^−6 M can be considered an RXR activator/agonist. Compounds which show 70% 80% 90% of the activity of the agonist 9-cis retinoic acid are also provided.
To confirm that the computer modeling/design of a compound does result in an RXR activator or RXR agonist, i.e. a compound that leads to RXR activation or transcriptional activation, commonly used assays can be applied, where the effect of the agonist or activator, interacting with the RXR ligand binding pocket is to stimulate or induce transcription of a gene or genes in a cell. In one particular embodiment, transient transfection experiments (as described essentially by Zhang, et al. (1996) Negative Regulation of Peroxisome Proliferator—Activated Receptor—γ Gene Expression Contributes to the Antiadipogenic effects of Tumor Necrosis Factor—α. Mol. Endo. 10:1457-1456) can be used. In these cases, full length RXR proteins are expressed in living cells. Alternatively, hybrid proteins that contain a portion of another DNA, binding domain and the ligand binding portion of the human RXRα receptor can be expressed in living cells instead of the fall length RXR protein. Such hybrid proteins can bind to and activate specific reporter genes introduced into the same living cell and activation of such reporter genes is measured (Brand, A. H. & Perrimon, 1993, Development, 118:401-415; Moya-Camarena, S. Y. et.al., 1999, J. Lipid Res., 40:1426:1433; Yi, Y. W. et al., 2000, Biochem. Biophys. Res. Commun., 272:193-198, each are herein incorporated by reference at least for material related to reporter assays). These assays not only measure binding of the ligand to its target, which could also be measured by an in vitro binding assay, but also measure the agonistic or activator activity of the compound. In such an assay, new compounds are compared to a standard activator like compound I or the natural agonist of RXR: 9-cis retinoic acid (see Example 7). For instance, all compounds that show at a given concentration at least 60% of the activity of 9-cis retinoic acid can be considered useful activators.

Cc1cc2c(cc1-c1cc(C=C3SC(=O)NC3=O)ccc1OC(F)(F)F)C(C)(C)CCC2(C)C [Compound 1]
Differentiation Activity [1]: 100%
RXR Activation (RXR receptor): 110%
